Laboratory results published in PubChem BioAssay (NCI).
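The compound was tested at five concentrations on cells cultured in 96-well plates, with a 48-hour exposure period. TGI: total growth inhibition.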

Legend:
Experiment in all cases: NCI tumour cell line growth inhibition, 48 h
[1] = test system: MOLT-4 leukemia
[2] = test system: HOP-62 NSCLC
[3] = test system: DMS 114 small cell lung
[4] = test system: RPMI-8226 leukemia
[5] = test system: LOX IMVI melanoma
[6] = test system: RXF 393 renal
[7] = test system: NCI-H226 lung
[8] = test system: MALME-3M melanoma
[9] = test system: SK-MEL-5 melanoma
[10] = test system: SF-295 CNS
[11] = test system: XF 498 CNS
[12] = test system: NCI/ADR-RES ovarian
[13] = test system: SK-MEL-2 melanoma
[14] = test system: UACC-257 melanoma
[15] = test system: KM12 colon
[16] = test system: OVCAR-3 ovarian
[17] = test system: UO-31 renal
[18] = test system: SN12C renal
[19] = test system: HCT-15 colon
[20] = test system: SN12K1 renal
[21] = test system: IGROV1 ovarian
[22] = test system: DMS 273 small cell lung
[23] = test system: EKVX NSCLC
[24] = test system: HT29 colon
[25] = test system: SW-620 colon
[26] = test system: OVCAR-5 ovarian
[27] = test system: CAKI-1 renal
[28] = test system: SF-268 CNS
[29] = test system: DLD-1 colon
[30] = test system: P388 leukemia
[31] = test system: SK-OV-3 ovarian
[32] = test system: SNB-78 CNS
[33] = test system: SF-539 CNS
[34] = test system: NCI-H460 lung
[35] = test system: HOP-92 NSCLC
[36] = test system: HCC-2998 colon
[37] = test system: A498 renal
[38] = test system: SK-MEL-28 melanoma
[39] = test system: OVCAR-8 ovarian
[40] = test system: NCI-H23 lung
[41] = test system: CCRF-CEM leukemia
[42] = test system: K-562 leukemia
[43] = test system: HOP-18 NSCLC
[44] = test system: OVCAR-4 ovarian
[45] = test system: P388/ADR leukemia
[46] = test system: SNB-75 CNS
[47] = test system: COLO 205 colon
[48] = test system: HCT-116 colon
[49] = test system: A549 NSCLC
[50] = test system: M19-MEL melanoma
[51] = test system: NCI-H522 lung
[52] = test system: UACC-62 melanoma
[53] = test system: SNB-19 CNS
[54] = test system: HL-60(TB) leukemia
[55] = test system: KM20L2 colon
[56] = test system: MCF7 breast
[57] = test system: U251 CNS

With `Nc1nc2[nH]c(=O)cnc2c(=O)[nH]1` the TGI [1] was > 125 µM, the TGI [2] was > 125 µM and the TGI [3] was > 125 µM. The TGI [4] was > 125 µM, the TGI [5] was > 125 µM and the TGI [6] was > 125 µM. For the same compound, the TGI [7] was > 125 µM, the TGI [8] was > 125 µM and the TGI [9] was > 125 µM. For the same compound, the TGI [10] was > 125 µM, the TGI [11] was > 125 µM and the TGI [12] was > 125 µM. For the same compound, the TGI [13] was > 125 µM, the TGI [14] was > 125 µM and the TGI [15] was > 125 µM. For the same compound, the TGI [16] was > 125 µM, the TGI [17] was > 125 µM and the TGI [18] was > 125 µM. For the same compound, the TGI [19] was > 78.9 µM, the TGI [20] was > 125 µM and the TGI [21] was > 125 µM. The TGI [22] was > 125 µM, the TGI [23] was > 125 µM and the TGI [24] was > 125 µM. The TGI [25] was > 125 µM, the TGI [26] was > 107 µM and the TGI [27] was > 125 µM. For the same compound, the TGI [28] was > 125 µM, the TGI [29] was > 125 µM and the TGI [30] was > 125 µM. For the same compound, the TGI [31] was > 125 µM, the TGI [32] was > 125 µM and the TGI [33] was > 125 µM. The TGI [34] was > 125 µM, the TGI [35] was > 125 µM and the TGI [36] was > 125 µM. The TGI [37] was > 125 µM, the TGI [38] was > 125 µM and the TGI [39] was > 125 µM. For the same compound, the TGI [40] was > 125 µM, the TGI [41] was > 125 µM and the TGI [42] was > 125 µM. The TGI [43] was > 5.8 µM, the TGI [44] was > 125 µM and the TGI [45] was > 125 µM. For the same compound, the TGI [46] was > 125 µM, the TGI [47] was > 125 µM and the TGI [48] was > 125 µM. The TGI [49] was > 125 µM, the TGI [50] was > 85.2 µM and the TGI [51] was > 19.8 µM. The TGI [52] was > 125 µM, the TGI [53] was > 125 µM and the TGI [54] was > 125 µM. For the same compound, the TGI [55] was > 91.4 µM, the TGI [56] was > 125 µM and the TGI [57] was > 125 µM.
